Source: publication PMC8284004, “Electrospun wound dressings containing bioactive natural products: physico-chemical characterization and biological assessment” (Biomaterials Research, 2021)
Like-named read-outs stand apart in the source and are kept apart here. Marks after values point to notes of the source that are not given here.

Experiments:
[1] = n-octanol/water (1:1, v/v) ref Ordoudi et al. [24]; cited from earlier work
[2] = test system: S. aureus LMG 8224; assay: Kirby-Bauer disc diffusion; assay type: cell-based, Staphylococcus aureus; conditions: for zone of inhibition at 30 µg/disc: Staphylococcus aureus; for Inhibition zone: 53 μM/disc (30 μg/disc for dimeric A/S, 15 μg/disc for shikonin and alkannin)
Method: (§1) The antibacterial activity of neat and A/S mixture-loaded fibrous scaffolds was evaluated against the Gram-positive strains, Staphylococcus epidermidis LMG 10474 and S. aureus LMG 8224, implementing the Kirby-Bauer disc diffusion method. The bacteria were cultured onto nutrient agar plates (24 h at 37 °C) and then a dense bacterial suspension was made by transferring a small portion of staphylococci (10 μL) with an inoculating loop to 1 mL of sterile PBS. Next, 100 μL of this suspension were spread to Mueller-Hinton (MH) agar plates for conducting the test. UV-sterilized nanofibers with an average diameter of 8 mm were placed on the surface of inoculated MH plates. The plates were incubated for a period of 24 h at 37 °C. […] After 24 h, the antibacterial activity was evaluated by measuring the inhibition zone of the bacteria in millimeters.

[3] = test system: S. aureus; parameters: method as in PMID 760130, PMID 5066306; conditions: cited from earlier work
[4] = test system: S. epidermidis LMG 10474; assay: Kirby-Bauer disc diffusion; assay type: cell-based, Staphylococcus epidermidis; conditions: for zone of inhibition at 30 µg/disc: Staphylococcus epidermidis; for Inhibition zone: 53 μM/disc (30 μg/disc for dimeric A/S, 15 μg/disc for shikonin and alkannin)
Method: as §1

[5] = test system: Hs27 fibroblasts; assay: SAR study of A/S derivatives on Hs27 metabolic activity (MTT); conditions: for Effect on Hs27 cell viability: 24 h, MTT, vs untreated cells
Method: (§2) In this regard, each compound was first dissolved in DMSO and further diluted with DMEM up to the desired concentrations (< 0.1% v/v DMSO to avoid toxicity). […] After the respective incubation times, the metabolic activity was evaluated by MTT assay as described in the previous section. Untreated cells served as controls.

[6] = as above; conditions: human
Method: as §2

[7] = test system: human skin fibroblasts; parameters: method as in PMID 25234005; conditions: non-selective toxicity towards normal cell lines ref 42; cited from earlier work
[8] = test system: granuloma tissue in Wistar rats; parameters: method as in PMID 9586574; conditions: dose-dependent ref 41; cited from earlier work
[9] = test system: keratinocytes; parameters: method as in PMID 27725239; conditions: at 1.5 and 3 μΜ ref 40; cited from earlier work
[10] = test system: human gingival fibroblasts; parameters: method as in PMID 31574951; conditions: at 1 μΜ ref 39; cited from earlier work
[11] = test system: S. epidermidis; parameters: method as in PMID 760130, PMID 5066306; conditions: cited from earlier work
[12] = LMG8224, 30 μg/disc on 8 mm filter paper, 24 h, read-out: Zone of inhibition
[13] = LMG10474, 30 μg/disc on 8 mm filter paper, 24 h, read-out: Zone of inhibition

SMILES | Log P [1] | zone of inhibition at 30 µg/disc ([2]; LMG8224, 24 h) [mm] | Growth inhibition [3] | zone of inhibition at 30 µg/disc ([4]; LMG10474, 24 h) [mm] | Inhibition zone [2] [mm] | Effect on Hs27 cell viability ([5]; 1 μM) | Inhibition zone [4] [mm] | IC50 [7] [nM] | Proliferation of granuloma tissue [8] | zone of inhibition at 30 µg/disc [2, 12] [mm] | zone of inhibition at 30 µg/disc [4, 13] [mm] | further results
CC(=O)O[C@H](CC=C(C)C)C1=CC(=O)c2c(O)ccc(O)c2C1=O [Acetyl-shikonin, acetyl-shikonin] | 0.66 ^c | 11.9 ± 1.43 | inhibited the growth | 14.1 ± 1.25 | – | – | – | – | – | – | – | –
CC(C)=CC[C@H](O)C1=CC(=O)c2c(O)ccc(O)c2C1=O [Alkannin, alkannin] | −0.27 ^c | 12.7 ± 0.58 | – | 15.2 | 10.74 ± 0.74 | significant decrease in cell number | 10.69 ± 1.01 | 1500 ± 100 | succeeded in accelerating (dose-dependently) the proliferation of granuloma tissue | – | – | viability at 3 days, 0.5 µM [6]: > 110%; Zone of inhibition ([4]; 30 μg/disc on 8 mm filter paper, 24 h): 15.16 ± 0.66 mm
CC(C)=CCCC1=CC(=O)c2c(O)ccc(O)c2C1=O [Deoxy-shikonin, deoxy-shikonin] | 1.08^c | 12.4 ± 0.23 | – | 13.2 ± 0.22 | – | – | – | – | – | – | – | In vitro migration [9]: enhanced the in vitro migration
CC(C)=CCC(OC(=O)CC(C)C)C1=CC(=O)c2c(O)ccc(O)c2C1=O (stereo not shown) [Isovaleryl-shikonin, isovaleryl-shikonin] | – | – | – | – | – | – | – | – | – | 9.13 ± 0.51 | 11.1 ± 0.94 | Proliferation rate ranking ([5]; day 3, isovaleryl-shikonin at 500 nM and 1 μM, dimeric A/S at 1 μM): highest proliferation rates
CC(C)=CC[C@@H](O)C1=CC(=O)c2c(O)ccc(O)c2C1=O [Shikonin, shikonin] | −0.27 ^c | 12.3 ± 0.64 | inhibited the growth | 14.8 ± 2.12 | 11.08 ± 0.26 | significant decrease in cell number | 10.77 ± 1.07 | 1200 ± 100 | succeeded in accelerating (dose-dependently) the proliferation of granuloma tissue | – | – | Effect on Hs27 cell viability ([5]; 500 nM): significant decrease in cell number; In vitro migration [10]: enhanced the in vitro migration
CC(C)=CCC(OC(=O)C=C(C)C)C1=CC(=O)c2c(O)ccc(O)c2C1=O (stereo not drawn) [β,β-Dimethyl-acryl-shikonin, β,β-dimethyl-acryl-shikonin] | 1.38 ^c | – | effective | – | – | – | – | – | – | 8.98 ± 0.17 | 10.6 ± 0.57 | Growth inhibition [11]: effective
